Data: PMC7576778, “The tomato receptor CuRe1 senses a cell wall protein to identify Cuscuta as a pathogen” (Nature Communications, 2020)
“And” between values parts separate entries of the source, which are not always exact repeats. Equal entries are not always repeated.

How the values were obtained:
[1] = target: Cuscuta Receptor 1 (CuRe1), myc-tagged (tomato (Solanum lycopersicum))
S. lycopersicum = assay: Ethylene bioassay, leaf pieces of cultivated tomato; format: cell-based; details: Suppl.Fig6c, peptides applied at 5 µM each, mean of the samples
Description: (§1) All obtained extracts or collected fractions after each purification step, as well as the isolated CrGRP or synthesized Crip peptides were tested for bioactivity in the ethylene assay as previously described. For this we cut leaf samples of analyzed plants in 3 × 3 mm squares and float them on a water surface. After incubation over night at RT, three leaf pieces are carefully collected into glass tubes (6 ml) with 500 µl water. Samples were treated as indicated as well as amounts of used extracts or concentrations of peptides. After treatment tubes were sealed with a rubber plug and incubated at RT on a horizontal shaker (85–100 rpm) for 3 h. All samples were analyzed with a Gaschromatograph (Shimadzu, GC-2014, glass column 3 mm × 1.6 m with Al2O3) by manually injecting 1 ml of the gaseous phase.

CuRe1 [2] = assay: Ethylene bioassay, leaf pieces of transgenic CuRe1-expressing N. benthamiana; format: cell-based, S. lycopersicum (tomato), expressed in N. benthamiana; set-up: ethylene measurement, average: unit not given here; details: for activity in CuRe1-dependent ethylene induction (in words) / concentration at which ethylene production is triggered (minimum effective concentration): CuRe1-expressing N. benthamiana leaves; for concentration at which ethylene production is triggered (minimum effective concentration): dose-dependent ethylene bioassay; for Ethylene, MW: RepFig 3a_2, H2O
Description: as §1

[3] = test system: leaves of S. lycopersicum, IL 12-2, IL 8-1-1 and S. pennellii; assay: Hypersensitive response (HR) cell death after peptide infiltration into tomato leaves; format: in vivo; details: 7 days
Description: For monitoring hypersensitive responses (HR) in leaves, 35S::CrGRP:GFP or 35S::GFP constructs were expressed in either transgenic, CuRe1-expressing or wt N. benthamiana plants. Leaves were infiltrated as described above using the defined volume of 200 µl; infiltration area was carefully labeled with a black marker. Pictures were taken 7 days post infiltration. For detecting HR-symptoms in tomato plants, two leaves of three plants (six leaves total; per introgression line or wildtype) were infiltrated with 100 µl of a 100 nM peptide solution; infiltrated leaf area was labeled with a pen immediately after infiltration and photographs were taken 7 days post peptide infiltration.

N. benthamiana wt = assay: Ethylene bioassay, leaf pieces of wildtype N. benthamiana; format: cell-based
Description: as §1

[4] = MS analysis of Crip21 treated with NH4OH or ethylamine; format: physicochemical; details: 12.5% NH4OH or 70% ethylamine
Description: The Cuscuta factor (CuF) could be inactivated by incubating it either with 12.5% NH4OH or 70% ethylamine for 1 h at 45 °C.
49 Supplementary Fig. 5. Inactivation of Crip21 by treatments with NH4OH or Ethylamine; (a) Crip21
51 biosynthesis in CuRe1-expressing N. benthamiana leaves. Peptide samples were applied at
52 concentrations of 100 nM. Bovine serum albumin (BSA; 0.01 mg/ml) buffered in 25 mM MES (pH
53 5.7) was added as mock control. FW, fresh weight; ethylene measurements show means of three
54 technical replicates; error bars denote SD. (b) incubation with NH4OH or Ethylamine leads to
56 products with different masses.
(1 picture or pasted object on this page, not shown here)

CuRe1 [5] = assay: Affinity-crosslinking of bio-Crip29 with CuRe1 in planta; format: binding, S. lycopersicum (tomato), expressed in N. benthamiana
Description: In vivo cross-linking of biotin-Crip29 (Crip29 aa-sequence: […]) to CuRe1 was performed as described; leaves of N. benthamiana expressing 35S::CuRe1:myc, or control plants (N. benthamiana expressing 35S::RLP23:myc) were infiltrated with biotinylated bio-Crip29 (10 nM in ddH2O) with or without unlabeled Crip21 (or unlabeled Crip82-106) (10 μM) as competitor or with flg22 peptide as competition control. Five minutes after peptide treatment 2 mM EGS (ethylene glycol bis(succinimidyl succinate) in 25 mM HEPES buffer (pH 7.5) was infiltrated into the same leaves for cross-linking of peptides to the receptor proteins. Twenty minutes after cross-linking, leaf samples were harvested and frozen in liquid nitrogen; immunoprecipitations were performed against the myc tag present at the c-terminus of CuRe1 using myc-trap agarose beads (ChromoTek, IZB Martinsried, Germany) as described above. All peptides, including biotinylated bio-Crip29, were synthesized by GenScript® and ordered with a purity of >95%. Biotinylated Crip29 was detected on blots by Streptavidine-conjugated Alkaline Phosphatase (Strep-AP, Roche diagnostics; Streptavidin-AP conjugate, Cat. No.: 11089161001, dilution: 1:1000 in 5% Albumin Fraction V, biotin-free).

[6] = RepFig3b_2, 0.01 nM, mean of 3 samples
[7] = RepFig3b_2, 0.1 nM, mean of 3 samples
[8] = RepFig3b_2, 1 nM, mean of 3 samples
[9] = RepFig3b_2, 10 nM, mean of 3 samples
[10] = RepFig3b_2, 100 nM, mean of 3 samples
[11] = Fig3a + Supl4, N. benthamiana CuRe1, peptide 1 nM, mean of 3 technical replicates
[12] = Fig3a + Supl4, N. benthamiana CuRe1, peptide 10 nM, mean of 3 technical replicates
[13] = Fig3a + Supl4, N. benthamiana CuRe1, peptide 100 nM, mean of 3 technical replicates

## CrGRP82-106 synthetic peptide
[1]
  ethylene production in CuRe1-expressing N. benthamiana, dose series of peptide: > 0.1 nM

## Crip21: 21 aa cysteine-rich peptide, minimal epitope of C. reflexa glycine-rich protein CrGRP, synthesized (NCGNSGCCGGAYSNGQCKRCC)
S. lycopersicum
  ethylene measurement, average: 20.1539
CuRe1 [2]; 12.5% NH4OH, 1 h at 45 °C, read-out ethylene in CuRe1 N. benthamiana, peptide 100 nM
  ethylene-inducing bioactivity after treatment with NH4OH: lost all of its activity
CuRe1 [2]; 70% ethylamine, 1 h at 45 °C, read-out ethylene in CuRe1 N. benthamiana, peptide 100 nM
  ethylene-inducing bioactivity after treatment with ethylamine: loose activity
CuRe1 [2]
  activity in CuRe1-dependent ethylene induction (in words): full activity
  concentration at which ethylene production is triggered (minimum effective concentration): > 0.1 nM
CuRe1 [2]; Fig3a + Supl4, N. benthamiana CuRe1, amount printed as 1 µl, mean of 3 technical replicates
  ethylene, average: 10
CuRe1 [2]; [6]
  ethylene, average: 0.2767
CuRe1 [2]; [7]
  ethylene, average: 1.39
CuRe1 [2]; [8]
  ethylene, average: 4.143
CuRe1 [2]; [9]
  ethylene, average: 8.283
CuRe1 [2]; [10]
  ethylene, average: 9.4
CuRe1 [2]; Suppl.Fig5, N. benthamiana CuRe1, peptide samples 100 nM, untreated or treated with 12.5% NH4OH / 70% ethylamine, mean of 9 samples, values <0.2 not collected
  ethylene, average: 3.844
CuRe1 [2]; Suppl.Fig6b, N. benthamiana CuRe1, 0.01 nM, mean of 3
  ethylene, average: 0.375 pmol/ml air
CuRe1 [2]; Suppl.Fig6b, N. benthamiana CuRe1, 0.1 nM, mean of 3
  ethylene, average: 0.45 pmol/ml air
CuRe1 [2]; Suppl.Fig6b, N. benthamiana CuRe1, 1 nM, mean of 3
  ethylene, average: 1.1 pmol/ml air
CuRe1 [2]; Suppl.Fig6b, N. benthamiana CuRe1, 10 nM, mean of 3
  ethylene, average: 2.8 pmol/ml air
CuRe1 [2]; Suppl.Fig6b, N. benthamiana CuRe1, 100 nM, mean of 3
  ethylene, average: 11.3 pmol/ml air
CuRe1 [2]; Suppl.Fig6b, N. benthamiana CuRe1, 1000 nM, 3 leaf pieces + 0.5 ml H2O / 6 ml tube, 3 h RT, mean of 3
  ethylene, average: 11.6 pmol/ml air
CuRe1 [2]; Suppl.Fig6c, N. benthamiana Cure1, peptides applied at 5 µM each, mean of the samples
  ethylene measurement, average: 9.564
[3]; leaves of S. pennellii and IL8-1-1 infiltrated with 100 nM peptide
  HR-type cell death, plants lacking CuRe1: did not
[3]; leaves of cultivated tomato (S. lycopersicum) or IL 12-2 infiltrated with 100 nM peptide
  HR-type cell death, plants with functional CuRe1: showed Crip21-dependent cell death
N. benthamiana wt; Fig3a + Supl4, amount printed as 1 µl, mean of 3
  ethylene, average: 0.2667
N. benthamiana wt; Suppl.Fig5, peptide samples 100 nM, mean of 3, values <0.2 not collected
  ethylene, average: 0.2
N. benthamiana wt; Suppl.Fig6c, peptides applied at 5 µM each, mean of the samples
  ethylene measurement, average: 0.1967
[4]
  peptide mass signal after incubation with NH4OH or ethylamine: disappearance of the peptide mass signal

## GGGGSGHGGHGKGKN [GRP15, 15 aa peptide that served as fingerprint for identification of CrGRP]
CuRe1 [2]
  activity in CuRe1-dependent ethylene induction (in words): completely inactive
CuRe1 [2]; [11]
  ethylene, average: 0,2 and 0.2127
CuRe1 [2]; [12]
  ethylene, average: 0,3 and 0.2733
CuRe1 [2]; [13]
  ethylene, average: 0,6 and 0.5933
CuRe1 [2]; Fig3a + Supl4, N. benthamiana CuRe1, peptide 1000 nM, mean of 3 technical replicates
  ethylene, average: 0,4 and 0.3733
CuRe1 [2]; authors' reply in peer review file, refers to Supplementary Fig. 4
  activity at 100 µM: no activity

## GKGKNCGNSGCCGGAYSNGQCKRCCAYKG [bio-Crip29]
CuRe1 [5]; bio-Crip29 10 nM infiltrated, crosslinked with 2 mM EGS, myc-trap IP, Strep-AP blot
  biotin labelling of CuRe1 immunoprecipitates: clear labelling
CuRe1 [2]
  activity in CuRe1-dependent ethylene induction (in words): as active as Crip21
CuRe1 [2]; [6]
  ethylene, average: 0.2933
CuRe1 [2]; [7]
  ethylene, average: 0.34
CuRe1 [2]; [8]
  ethylene, average: 1.017
CuRe1 [2]; [9]
  ethylene, average: 5.31
CuRe1 [2]; [10]
  ethylene, average: 7.693

## GKNCGNSGCCGGAYSNGQCKRCCAY [CrGRP82-106, synthetic peptide representing CrGRP residues 82-106]
CuRe1 [2]
  concentration at which ethylene production is triggered (minimum effective concentration): ≥ 0.1 nM
CuRe1 [2]; [11]
  ethylene, average: 5.823
CuRe1 [2]; [12]
  ethylene, average: 8.73
CuRe1 [2]; [13]
  ethylene, average: 9.817
CuRe1 [2]; 1 nM, 3 h RT, mean of 3 samples
  Ethylene, MW: 1.5 pmol/ml air
CuRe1 [2]; 10 nM, 3 h RT, mean of 3 samples
  Ethylene, MW: 4.6 pmol/ml air
CuRe1 [2]; 100 nM, 3 h RT, mean of 3 samples
  Ethylene, MW: 8.9 pmol/ml air
CuRe1 [2]; [6]
  ethylene, average: 0.29
CuRe1 [2]; [7]
  ethylene, average: 1.63
CuRe1 [2]; [8]
  ethylene, average: 3.067
CuRe1 [2]; [9]
  ethylene, average: 8.457
CuRe1 [2]; [10]
  ethylene, average: 11.2833
N. benthamiana wt; Fig3a + Supl4, peptide 100 nM, mean of 3
  ethylene, average: 0.2267

## non-modified Crip: unlabeled Crip21 or Crip82-106 (10 µM) used as competitor in crosslinking (NCGNSGCCGGAYSNGQCKRCC)
CuRe1 [5]; bio-Crip29 10 nM with excess competitor (10 µM)
  competition of bio-Crip29 labelling of CuRe1: absent
